# In patent publication US20040116530A1, “Tissue fibrosis inhibitors” (priority 2001, published 2004):
# Marks after values point to notes of the source that are not given here.
# How the values were obtained:
# [1] = test system: dimethylnitrosamine-induced rat hepatitis models; experiment: Dimethylnitrosamine-induced rat hepatitis model (hepatic injury and fibrogenesis); format: in vivo; details: for Hepatic Fibrogenesis Score: n=15, histology (azan stain), grade 0-4
# Procedure: Dimethylnitrosamine was frequently administered to rats for 3 weeks to thereby make the rats have irreversible hepatic fibrogenesis. The rats are the test models in this experiment. As the index of hepatic injury and fibrogenesis, the hepatic hydroxyproline was measured in every rat and the liver tissue of each rat was pathologically analyzed. Based on the data, the tissue fibrogenesis-inhibiting effect of the prostaglandin-I2 agonist was evaluated.
# 10 mg/kg of dimethylnitrosamine was intra-abdominally administered to rats everyday in continuous 3 days a week, over a period of three weeks. 5 days after the final administration of dimethylnitrosamine, the liver was taken out of each rat and its weight was measured. Then, distal potion of the left lobe of the liver was cut out. A part of it was used for histologic analysis^*1) for hepatic fibrogenesis; and another part thereof was used for determination of hepatic hydroxyproline content^*2).
# The test compound was orally administered to the rats from the initial dimethylnitrosamine administration to one day before the blood collection from the rats. On the day for dimethylnitrosamine administration, the test compound was administered 12 hours after the dimethylnitrosamine administration; and on the other day, it was administered once a day. The effect of the test compound for curing hepatic injury and fibrogenesis was investigated. The test compound was administered to three groups −1 mg/kg/day administration group (n =15), 3.2 mg/kg/day administration group (n=15), and 10 mg/kg/day administration group (n=15). To the comparative control group, 0 mg/kg administration group (n=15), a solvent was administered in place of the test compound. To confirm the presentation of hepatic fibrogenesis through
# dimethylnitrosamine administration, a solvent in place of dimethylnitrosamine was administered to a no-treatment group (n=5).
# A distal potion of the left lobe of the liver was fixed in 10% neutral buffer formalin liquid, then stained with azan to prepare an anatomicopathological specimen, on which the degree of fibrogenesis was classified into 5 grades according to the fibrogenesis criteria mentioned below.
# Grade 0: No fibrogenesis was found.
# Grade 1: Light fibrogenesis was found only locally in and around the portal vein and the central vein.
# Grade 2: The fibrogenesis in and around the portal vein and the central vein extended to the lobe.
# Grade 4: High-level fibrogenesis was found along with pseudo lobe formation.
# A part of the left lobe of the liver that had been frozen at −80° C. was thawed, and 1 ml/500 mg-liver weight of phosphate balanced salt buffer (PBS(−), Dulbecco PBS(−)) was added to it. Then, this was homogenized in Polytron (power control 7, type; PT 10 20 350D, by KINEMATICA) for 1 minute. 4 ml of the thus-homogenized liquid was transferred into a screw cap-equipped centrifuge (by PYREX), and 0.4 ml of 9M HCl was added to it and incubated at120° C. for 8 hours (in DRYING STERILIZER SG-62, by YAMATO). Next, this was further incubated at 4° C. overnight, then neutralized with 6 M KOH and 9M HCl, and then filtered (pore size 0.45 μm, MILLIPORE). 1 ml of chloramine-T^(**) was added to 100 μl of the filtrate or a standard liquid^(*), and left at room temperature for 20 minutes. 1 ml of Ehrich solution^(***) was added to it, and incubated at 65° C. for 40minutes. The reaction was stopped in ice-water, and then the absorbance (OD560) of the reaction liquid was measured with an spectrophotometer UV2100PC (UV-VIS SCANNING SPECTRO PHOTOMETER, by SHIMADZU).
# [2] = test system: bleomycin-induced mouse fibrotic lung models; experiment: Bleomycin-induced lung fibrosis model in mice; format: in vivo
# Procedure: Bleomycin was frequently administered to mice for 10 days to thereby make the mice fibrotic lung. The mice are the test models in this experiment. As the index of lung fibrogenesis, the lung hydroxyproline was measured in every mouse, from which the effect of the prostaglandin-I2 agonist for inhibiting lung fibrogenesis was investigated.
# 1. 10 mg/kg of bleomycin that had been dissolved in saline to have a concentration of 1 mg/ml was intraperitoneally administered to 8-weeks-old male C57BL/6N mice, once a day, everyday for continuous 10 days. Saline alone was intraperitoneally administered to the negative control group.
# 2. To the animals of the positive control group and the test compound-administered group, 10 ml/kg of pure water or an aqueous solution of the test compound (32 mg/kg) was orally administered everyday during the test period from the start of the bleomycin administration.
# 3. 4 weeks after the start of the bleomycin administration, the animals were killed in a mode of euthanasia, the lung was taken out, its wet weight was measured, and the lung was then freesed at −30° C.
# 4. […]
# 5. The hydrolyzed sample was neutralized with 6 mols/liter of potassium hydroxide, and the hydroxyproline content of the sample was measured, from which the lung hydroxyproline content was derived. […]
# [3] = test system: acute hepatitis; details: literature statement; cited from earlier work
# [4] = test compound-administered groups (1, 3.2, 10 mg/kg/day oral) vs dimethylnitrosamine control, figure only
Compound,"Hepatic Fibrogenesis Score ([1]; 1 mg/kg/day oral, control (0 mg/kg) 2.1 ± 0.2)","Hepatic Fibrogenesis Score ([1]; 3.2 mg/kg/day oral, p < 0.05 vs. 0 mg/kg (2.1 ± 0.2))","Hepatic Fibrogenesis Score ([1]; 10 mg/kg/day oral, p < 0.05 vs. 0 mg/kg (2.1 ± 0.2))","hepatic fibrogenesis (histology), in words ([1]; test compound-administered groups (1, 3.2, 10 mg/kg/day oral) vs dimethylnitrosamine control)","hepatic hydroxyproline content (hepatic collagen content) [1, 4]","liver weight reduction [1, 4]","Hydroxyproline Content (lung) ([2]; 32 mg/kg oral daily, 4 weeks after start of bleomycin, n=15, positive control 398.19 ± 15.483, negative control 200.03 ± 6.9707, p < 0.01 vs positive control) [ug/lung]",increase in the lung hydroxyproline content caused by bleomycin administration ([2]; oral administration of 32 mg/kg),hepatic coagulation necrosis in acute hepatitis [3]
"O=C(O)COc1cccc2c1CC[C@](O)(COC(=O)N(c1ccccc1)c1ccccc1)C2 [Test compound, [[(2R)-5-(carboxymethoxy)-2-hydroxy-1,2,3,4-tetrahydronaphth-2-yl]methyl]N,N-diphenylcarbamate]",1.7 ± 0.2,1.3 ± 0.2*,1.3 ± 0.2*,inhibited,decreased,suppressed,308.37 ± 19.403,significantly inhibited,–
CC#CCC(C)[C@H](O)/C=C/[C@@H]1[C@H]2c3cccc(CCCC(=O)O)c3O[C@H]2C[C@H]1O (mixture of isomers) [beraprost],–,–,–,–,–,–,–,–,inhibits hepatic coagulation necrosis
